Experimental data taken from patent US20170044150A1, “IDENTIFICATION OF COMPOUNDS WHICH INHIBIT ATG8-ATG3 PROTEIN-PROTEIN INTERACTION AND THEIR USE AS ANTIPARASITICAL AGENTS” (THE JOHNS HOPKINS UNIVERSITY, priority 2014, published 2017).
Read-outs that look alike come from different tables or passages of the source.

Experiments:
PfAtg8^CM [1] = molecular target: PfAtg8^CM (Plasmodium falciparum, UniProt Q8IJK2); assay: SPR direct binding of compound 1 to immobilized His12-PfAtg8^CM; design: other: 2-fold dilution series, highest 75 μM; fused on or other part: N-terminal His12 tag; species or system P. falciparum; conditions: 2-fold dilution series, highest 75 μM
Method: His12-PfAtg8^CM was injected over an NTA-chip (GE Healthcare) preconditioned with nickel, leading to capture of 3,000 response units (RUs). Running buffer contained 3% DMSO. A 2-fold-dilution series of compounds, highest concentration of 75 μM, was injected over PfAtg8 variants at 40 μL/minute.
Determination of the PTA binding site on PfAtg8. The inventors tested whether these compounds bound directly to PfAtg8 using SPR. PfAtg8^CM was immobilized onto an SPR Ni-NTA chip via a twelve histidine N-terminal tag. […] It was then sought to determine the binding site for the PTA compounds with in silico docking.

P. falciparum 3D7-GFP = assay type: cell-based; conditions: for decrease in the proportion of infected hepatocytes (GFP+/PI- cells): 72 hours post infection
Method: In vitro infection of human hepatocytes with P. falciparum 3D7-GFP. The HC-04 cell line (ATCC, Manassas, Va., USA) was maintained in complete medium (IMDM containing 2.5% FCS, 100 units/ml penicillin, 100 μg/ml streptomycin and 2 mM L-glutamine, all from GIBCO®, Life Technologies, Grand Island, N.Y.). P. falciparum 3D7-GFP parasite strain (PLoS ONE 2010, 5, e9156) was propagated in the Parasitology Core facility, the Johns Hopkins Malaria Research Institute. In vitro infection of human hepatocytes was done as described previously (PLoS ONE 2013, 8, e75321). Briefly, salivary glands were sequestered from infected Anopheles gambiae mosquitoes at day 17 after exposure to infective blood meal and homogenates were separated on an OptiPrep™ Density Gradient (Sigma-Aldrich, St. Louis, Mo.) at 12,000×g for 10 minutes. Sporozoites were collected from the gradient interface, washed in complete medium, counted using a hemocytometer and incubated with HC-04 cells at 3:1 sporozoite to hepatocyte ratio for 2 hours at 37° C. […]
Detection of P. falciparum exoerythrocytic forms in vitro. HC-04 human hepatocyte cell line (ATCC, Manassas, Va., USA) was maintained in complete medium (IMDM containing 2.5% FCS, 100 units/ml penicillin, 100 μg/ml streptomycin and 2 mM L-glutamine, all from GIBCO®, Life Technologies, Grand Island, N.Y.). P. falciparum 3D7HT-GFP parasite strain (PLoS One. 5(2):e9156. doi:10.1371/journal.pone.0009156 (2010)) was propagated in the Parasitology Core facility of the Johns Hopkins Malaria Research Institute. In vitro infection of human hepatocytes, and detection and quantification of P. falciparum 3D7HT-GFP EEFs by flow cytometry were performed as previously described (PLoS One. 8(9):e75321. doi:10.1371/journal.pone.0075321 (2013)).

P. yoelii liver stage = conditions: screening concentration 10 μM; cited from earlier work
P. falciparum 3D7 = assay: SYBR Green I growth inhibition assay, blood stage; assay type: cell-based; conditions: Plasmodium falciparum
Method: P. falciparum blood stage culturing. P. falciparum 3D7 and FCR3 cultures were maintained using modified, previously published methods at 37° C., 2% hematocrit of human red blood cells (Science 1976, 193, 673-675). Complete culture media consisted of sterile RPMI 1640 media (Life Technologies), supplemented with 10% human serum, 0.005% hypoxanthine, and buffered with final concentrations of 0.6% HEPES and 0.26% NaHCO3. The FCR3 strain was maintained at 3% CO2 and 5% O2, 92% N2 atmosphere, while the 3D7 strain was maintained at 5% CO2, 5% O2, 90% N2 atmosphere.
SYBR Green I growth inhibition assay. 10 μL of 10× compound diluted in RPMI 1640 media (Gibco) with a constant concentration of 1% DMSO was added to a 96 well plate (Costar), 90 μL of 1.5% ring stage, synchronized with 5% w/v sorbitol P. falciparum 3D7 parasites, 1% hematocrit, in culture media with 10% v/v human serum with 10 μg/mL gentamycin. Each compound concentration and 1% v/v DMSO controls were run in triplicate. Plates were incubated at 37° C. in 5% O2, 5% CO2 and 90% N2 for 72 hours. Plates were frozen, thawed, and incubated with 100-μL 2× SYBR green in lysis buffer (20 mM Tris pH 7.5, 5 mM EDTA, 0.008% Saponin, 0.08% TritonX-100) in the dark for at least one hour. Fluorescence was measured with a plate reader (HTS 7000, Perkin Elmer) at excitation/emission wavelengths of 485/535 nm.
Plasmodium parasite growth inhibition assay. P. falciparum 3D7 parasites were cultured as previously described (J Med Chem 57:4521-4531(2014)). Briefly, the parasites were cultured in 10% v/v human serum with 10 μg/mL gentamycin and synchronized with 5% w/v sorbitol. 1.5% ring stage parasites were added to 96 well plates (Costar) containing serial dilutions, performed in triplicate, of compound in RPMI 1640 media (Gibco). Plates were incubated at 37° C. in 5% O2, 5% CO2, and 90% N2 for 72 h. Plates were frozen, thawed, and incubated with 100 μL 2× SYBR green in lysis buffer (20 mM Tris pH 7.5, 5 mM EDTA, 0.008% Saponin, 0.08% TritonX-100) in the dark for 1 h. Fluorescence was measured with a plate reader (HTS 7000, PerkinElmer) at excitation/emission wavelengths of 485/535 nm.

HC-04 cells = assay: HC-04 hepatocyte viability / cytotoxicity (Annexin-V, PI flow cytometry); assay type: cell-based, human; conditions: 30 μM
Method: Detection of Annexin-V positive and PI-positive cells in hepatocyte cultures was done by flow cytometry according to the manufacturer's instruction (Invitrogen™, Life Technologies, Grand Island, N.Y., USA).
Hepatocyte cytotoxicity assay. Hepatocyte cytotoxicity assays were carried out in triplicate at two concentrations of inhibitory compounds using HC-04 cells as previously described. Flow cytometry was used to assess two cytotoxicity markers via staining, namely propidium iodine (PI) and Annexin-V.

human cell lines = conditions: cited from earlier work
PfAtg8 = assay: Immunoblot analysis of PfAtg8 in P. falciparum blood stage cultures; assay type: cell-based; conditions: for lipidation of PfAtg8: 12 hours
Text: Immunoblot analysis of P. falciparum blood stage. […] RBCs were harvested with centrifugation, lysed with 0.2% saponin, and RBC lysate was removed through three 1× PBS washes. Parasites were harvested by centrifugation and washed in 1× PBS with Complete EDTA-free protease inhibitors (Roche) and lysed by repeated vortexing and boiling in SDS reducing sample buffer. […] HRP-conjugated secondary antibodies (Southern Biotech) were detected by SuperSignal West Femto (Thermo Scientific) or Amersham™ ECL™ Prime (GE Healthcare) chemiluminescent substrate. AP-conjugated secondary antibodies (EMD Millipore) were detected using NBT/BCIP (Promega) colorimetric stain. Total protein levels were visualized with ProAct™ Membrane Stain (Amresco) and quantified with ImageJ. Parasite morphology at time of harvesting was visualized with light microscopy at 100× magnification on Olympus BX53 system microscope (Olympus America, Inc.).

PfAtg3 = molecular target: T1, PfAtg3 (Plasmodium falciparum, UniProt C0H519); assay: SPR binding of PfAtg3 to immobilized compound 8; conditions: data not shown
T1 construct: made in house
T1 sequence (C0H519 1-313): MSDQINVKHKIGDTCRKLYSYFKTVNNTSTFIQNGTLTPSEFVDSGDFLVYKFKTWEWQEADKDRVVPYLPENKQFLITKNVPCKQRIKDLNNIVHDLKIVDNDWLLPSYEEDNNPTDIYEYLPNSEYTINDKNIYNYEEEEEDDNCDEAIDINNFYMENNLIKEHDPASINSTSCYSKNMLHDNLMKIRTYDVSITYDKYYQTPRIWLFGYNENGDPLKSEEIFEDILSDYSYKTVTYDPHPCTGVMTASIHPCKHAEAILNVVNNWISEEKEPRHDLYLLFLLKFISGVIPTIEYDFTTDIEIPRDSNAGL
Method: (§1) Direct binding of compound 8 to PfAtg8^CM. Compound 8 was injected over a neutravidin-coated SPR chip (GE Healthcare) on one flowcell, with 130 RUs immobilized, while BACH was injected over a reference flowcell (150 RUs immobilized). His6-PfAtg8^CM, Human LC3, or His6-PfAtg3 was injected in duplicate in running buffer containing 10 mM HEPES pH 7.5, 150 mM NaCl, 0.05% P20. Protein was dissociated from the chip after each cycle with 10 μL injection of 20 mM HEPES pH 7.4, 1% w/v SDS regeneration solution.
(§2) Synthesis of a novel PTA derivative with a functional handle. […] A PTA-benzaldehyde derivative, 4-formyl-N-(4-pyridin-2-yl-1,3-thiazol-2-yl)benzamide (compound 7) was synthesized with a functional handle extending off the common hydrophobic ring system (Table 1, Scheme 1). Compound 7 was prepared from commercially available PTA and 4-formyl benzoic acid through a DCC-promoted amide coupling. Compound 7 can be tethered through a dialkoxyamine linker to a library of aldehydes and screened using our primary SPR competition assay against the PfAtg8-PfAtg3 interaction. In docking studies, compound 7 bound the W- and L-site of PfAtg8 in a fashion similar to compound 2, with the functional handle positioned towards the A-loop pocket (FIG. 7A). A gain in parasite selectivity for such bifunctional analogs is expected as the A-loop is missing in the human Atg8 homologues. […]

PfAtg8^CM [2] = molecular target: T2, PfAtg8^CM (Plasmodium falciparum, UniProt Q8IJK2); assay: SPR binding of PfAtg8^CM to immobilized compound 8; design: species or system P. falciparum
T2 construct: rows headed: KD; other: immobilized compound
T2 sequence (Q8IJK2 1-124 C32I/C119S/C122S): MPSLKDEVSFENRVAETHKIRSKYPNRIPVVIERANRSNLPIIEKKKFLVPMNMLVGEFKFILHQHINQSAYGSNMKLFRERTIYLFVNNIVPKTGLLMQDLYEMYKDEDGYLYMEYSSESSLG
Method: as §1, §2

[3] = molecular target: PfAtg8-PfAtg3 interaction (Plasmodium falciparum, UniProt Q8IJK2); assay type: binding, P. falciparum
hLC3 = molecular target: T3, hLC3 (Homo sapiens, UniProt Q9GZQ8); assay: SPR binding of hLC3 to immobilized compound 8
T3 construct: made in house
Method: as §1, §2

[4] = 3D7, no asterisk, read-out: IC50 Blood stage

Compound | SPR response, direct binding to PfAtg8^CM (PfAtg8^CM [1]) | intensity of GFP fluorescence (P. falciparum 3D7-GFP; 3 μM and 30 μM, 72 hours) | decrease in the proportion of infected hepatocytes (GFP+/PI- cells) (P. falciparum 3D7-GFP; 3 μM) | decrease in the proportion of infected hepatocytes (GFP+/PI- cells) (P. falciparum 3D7-GFP; 30 μM) [%] | inhibition in P. yoelii liver stage cultures (P. yoelii liver stage) [%] | IC50 (P. falciparum 3D7; [4]) [nM] | IC50 (P. falciparum 3D7; 3D7, third experiment, read-out: IC50) [nM] | IC50 (P. falciparum 3D7; 3D7, two of three independent experiments, read-out: IC50) [nM] | IC50 (P. falciparum 3D7; 3D7, two to three experiments, read-out: average IC50) [nM] | cell death in HC-04 cells (HC-04 cells) | reported cytotoxicity in human cell lines (human cell lines) | lipidation of PfAtg8 (PfAtg8; 5 μM) | lipidation of PfAtg8 (PfAtg8; 25 μM and 50 μM) | PfAtg8 protein levels (PfAtg8; 50 μM, five hours) | mobility of PfAtg8 (PfAtg8; 50 μM, five hours) | binding of recombinant PfAtg3 (PfAtg3) | Kd (PfAtg8^CM [2]) [nM] | LEAN (SPR) ([3]; -log (IC50)/number of heavy atoms) | IC50 ([3]; read-out: IC50 SPR, inhibition of PfAtg8-PfAtg3 interaction) [nM] | Kd (hLC3) [nM]
Cc1ccc(Nc2nc(-c3ccccn3)cs2)cc1 [Compound 1, N-(4-methylphenyl)-4-pyridin-2-yl-1,3-thiazol-2-amine] | dose-dependent increase in SPR response | dose-dependent reduction | but not 3 μM | ~50 | ≤ 50 | 1470 | 3300 | 768 | 1610 ± 1470 | did not observe cell death | much lower than that of compounds 2 or 3 | dose-dependent decrease in lipidation | unlipidated PfAtg8 is exclusively detected | drastic increase | shift in mobility, likely corresponding to the unlipidated form of PfAtg8 | – | – | – | – | –
O=C(CCCC[C@H]1SC[C@H]2NC(=O)N[C@H]21)NCCCCCC(=O)NNCc1ccc(C(=O)Nc2nc(-c3ccccn3)cs2)cc1 [Compound 8, 4-[[2-[6-[5-[(3aR,4R,6aS)-2-Oxo-1,3,3a,4,6,6a-hexahydrothieno[3,4-d]imidazol-4-yl]pentanoylamino]hexanoyl]hydrazinyl]methyl]-N-(4-pyridin-2-yl-1,3-thiazol-2-yl)benzamide] | – | – | – | – | – | 1480 | – | – | – | – | – | – | – | – | – | did not bind | 540 | 0.22 | 2660 | 18000
